Assay: liver microsomal assay (metabolic stability)
Assay type: in vitro ADME, pig
Experimental: To further characterize the inhibitors with regard to suitability for administration in pigs, a microsomal assay was used to determine metabolic stability ([Ackley et al., 2004]) for a subset of eight inhibitors chosen for their potency and availability. Microsomal preparations from pig liver were purchased from XenoTech (Kansas City, KS, US). Microsomes, buffer and NADPH generating system were combined, and then the inhibitor was added. The reaction was stopped after 35 min with ice cold acetonitrile containing internal standard (12-[[(cyclohexylamino)carbonyl]amino]-dodecanoic acid). The amount left of parent inhibitor was determined with LC-MS/MS.

CCOCCOCCOCCCCCNC(=O)NC12CC3CC(CC(C3)C1)C2 [Compound 950]
metabolic stability: low
